This is an account of results in patent publication US11285180B2, “Methods of enhancing the potency of incretin-based drugs in subjects in need thereof” (INSERM (INSTITUT NATIONAL DE LA SANTE ET DE LA RECHERCHE …, priority 2016, dated 2022).

In assay [1] the test system is meal-induced insulin secretion. As to conditions: administered orally; healthy, type II diabetic patients, and diabetic mice; cited from earlier work.
In assay [2] the test system is insulin secretion. In words: Oral glucose-induced insulin secretion after oral NO donor. The class given is in vivo, mice. As for the experimental part: To identify oral glucose-induced insulin and GLP-1 secretions, all sets of mice were gavaged with glucose (2 g/kg). After 15 min, 30 μl of blood from the tip of the tail vein were sampled to assess plasma insulin concentration. 300 μl of portal vein blood were collected following an intravenous (i.v.) administration of a Ketamin (10 mg/kg)/Xylasin (1 mg/kg), to ensure an immediate anesthesia of the mice. This procedure allows performing portal vein blood sampling since it dramatically minimizes the impact of anesthesia on blood parameters. In addition, to prevent from the in vivo degradation of GLP-1 by DPP4, a DPP4 inhibitor (400 μg/mouse sitagliptin, MSD Rahway, N.J.) was administered orally 30 min before the oral gavage with glucose. Eventually, the portal blood was collected in the presence of protease inhibitors diprotin A (1 mM), aprotinin (0.2 μM) and EDTA (1 mM). Plasma hormones were assessed by ELISA (insulin, Mercodia; active GLP-17-36, Alpco). A GLP-1 resistance index for each mice was calculated from glucose, insulin and GLP-1 concentrations 15 min after the oral glucose load. Since the insulinotropic activity of GLP-1 depends upon the glycemic level we set the following equation: Glucose x GLP-1 concentrations/insulin concentration. In some experiments, distal ileum and left nodose ganglion were harvested from mice.
(§1) Thirty minutes before all 3 GLP-1 challenge procedures, a NO synthase (NOS) inhibitor (L-NAME, Abcam) was administered i.p. at doses of 0, 50, 100, 200 μg/kg. In a different set of mice, a NO donor (L-Arginine, 1 g/kg, Sigma-Aldrich) was administered orally in the presence or absence of the GLP-1r antagonist, Exendin 9 (1 nmol/mice, 100 μL, i.p. injection, Bachem). To study the chronic effect of L-arginine in GLP-1 sensitivity, the molecule (0.5 g/kg, 300 μL, lgavage/day) was administered for one week.

Assay [3] has as its system gastric emptying. The experiment in a line: GLP-1 regulated gastric emptying (oral acetaminophen, plasma acetaminophen). The class given is in vivo, mice. How it is done: (§2) To evaluate GLP-1 sensitivity three GLP-1 regulated parameters were quantified: insulin secretion, gastric emptying, and food intake. To prevent from the degradation of exogenous GLP-1 a DPP4 inhibitor (400 μg/mouse sitagliptin) was given orally 30 min before the GLP-1 challenge.
For gastric emptying the glucose challenge was replaced by an oral administration of acetaminophen (SIGMA-Aldrich, […]). The plasma acetaminophen concentrations were assessed by colorimetric-based assay (SEKISUI diagnostics, Canada) in the plasma from tail blood during 15 min.
as §1

In assay [4] the test system is GLP-1-induced insulin secretion. The experiment in a line: In vivo GLP-1 stimulated insulin secretion (i.p. GLP-1, then i.v. glucose challenge). The arrangement: species or system mice. How it is done:
as §2
Since GLP-1 insulinotropic effect is glucose dependent we first assessed in vivo GLP-1 stimulated insulin secretion in hyperglycemic conditions. The mice were first fasted for 6 h before the GLP-1 and glucose challenges. Active GLP-17-36 (BACHEM, Switzerland) was then administered intraperitoneally at different doses (0, 2.2, 7, 20, 63 nmol/kg, diluted in distilled water) 5 min before the glucose challenge. In some sets of experiments a single active dose of 7 nmol/kg was tested. To induce hyperglycemic conditions a retrorbital i.v. glucose (1 g/kg) injection was realised. This procedure avoids the confounding effect of the oral glucose-induced gut-secreted GLP-1. Blood (30 μl) was collected from the tail vein 15 min after glucose challenge. Plasma insulin concentration was determined.
The dose-response curve was calculated by curve interpolation with 4-Parameter Logistic (4PL) sigmoidal model using GraphPad Prism version 6.00 for Mac (GraphPad Software, San Diego, Calif., USA; www.graphpad.com) and the ECso calculated.
as §1

The test system of assay [5] is food intake. In words: GLP-1 regulated food intake (30 min after 16-hour fast). The class given is in vivo, mice. As for the experimental part: as §2
Food intake was recorded for 30 min following a 16-hour period of fast.
as §1

The subject of assay [6] is distal ileum segment. The experiment in a line: Ex vivo ileal real-time NO measurement. The arrangement: species or system mice. As for the experimental part: The distal ileum segment from fed mice were washed in Krebs-Ringer bicarbonate/glucose buffer (pH 7.4) in an atmosphere containing 95% O2—5% CO2 and then immersed in Eppendorf tubes containing 400 μL of the same medium. After a 10 min recovery period, the spontaneous NO release in response to 10 μL of Krebs-Ringer solution (control), GLP-1 (150 nM) and/or Exendin 9 (375 nM) was measured at 37° C. for 10 min using a NO-specific amperometric probe (ISO-NOPF, […], 5 mm length, World Precision Instruments, Aston Stevenage, UK) implanted directly in the ileum. Data are expressed (Fournel et al., 2015).

The test system of assay [7] is primary enteric neurons. In words: GLP-1-induced NO production in primary cultures of enteric neurons (DAF-FM). The class given is cell-based, mice. As for the experimental part: The protocol was adapted from Smith and colleagues (Smith et al., 2013). The ileum (last 9 cm) was harvested and kept in ice cold-carbogen bubbled-Krebs solution. The tissue was cut into 3 cm slices and kept on plastic rod. An incision was realized with a forceps where the mesentery was attached. The outer layers containing muscular cells and myenteric neurons (LMMP) were obtained by moving from top to bottom, along the gap. The LMMP were digested with collagenase II (1.3 mg/mL, Worthington) and BSA (0.3 mg/mL) in Krebs solution bubbled with carbogen 30 min in a 37° C. shaking bath. Digested cells were transferred in Hank Balanced salt Solution (HBSS)/trypsin solution (0.05%) 7 min in a 37° C. shaking bath. […]
Primary enteric neurons were grown for 7 days in culture. […] The fluorescence was measured on confocal Zeiss Laser Scanning Microscope LSM-780 equipped with 63×/1.4 NA oil immersion objective and a GaAsP detector with quantum yield of 45% with Black Zen software and analysed with Image J software. A region of interest (ROI) corresponding to identified nNOS positive cells was defined from where the DAF-FM or nNOS fluorescence mean per ROI was measured. The ratio of both values for each ROI was then calculated.

The subject of assay [8] is cFos positive cells in the brain stem (NTS-DMNX). The experiment in a line: c-FOS immunostaining in the brain stem after GLP-1. The class given is in vivo, mice. As for the experimental part: Brain was removed and kept on PFA 4% overnight at 4° C. After washing in cold citrate buffer for 6 h, brain was warmed until boiling, washed in PBS, cooled to 4° C., then immersed in cold sucrose solutions (10% then 30% in PBS). After freezing on dry ice, the brain was stored at −80° C. and cut into 20 μm thick slices (cryostat, Thermo). The slices were washed 3 times with PBS, blocked with PBS, 0.3% Triton X100, 2% donkey serum and incubated with the c-fos antibody diluted in the same solution ( 1/10000, Santa Cruz) overnight at RT. After 16 h, the brain slices were washed 3 times with PBS and incubated with biotinylated antibody ( 1/2000, Jackson ImmunoResearch) diluted in the PBST solution (PBS, 0.3% Triton X100) for 1 h at RT. Brain slices were washed 3 times in PBS and incubated with the reagent A (avidin) and B (biotinylated enzyme) from Vectastain Elite ABC kit (Vector Laboratories) diluted in the PBST solution, 30 min at RT. Then, brain slices were washed 3 times in PBS and incubated with biotinylated tyramine solution (tyramine and biotin diluted in borate buffer/3% H2O2, pH=8.4), 20 min at RT. […] The fluorescence was analysed as above. We identified the Nucleus Tractus Solitary NTS and dorsal motor nucleus of vagus nerve DMNX area using a mouse brain atlas (Franklin and Paxinos, 1997) and we counted the number of cFOS positive cells/area corresponding to the NTS-DMNX.

The mark [9] stands for this setting: L-NAME i.p. 30 min before GLP-1 challenge.

Regarding `N=C(N)NCCC[C@H](N)C(=O)O` [L-Arginine], the meal-induced insulin secretion entry in assay [1] is recorded as “improves”. The insulin secretion result in assay [2] (HFD GLP-1 resistant diabetic mice, oral and acute administration) is “improved insulin secretion”. Further, the “insulin secretion after oral glucose challenge” value in assay [2] (NCD-fed mice, oral and acute treatment) is reported as “induced insulin secretion”. In assay [3] (HFD diabetic mice, NO-donor treatment), the gastric emptying result is on record as “could also improve”. Also, the gastric emptying inhibition entry in assay [3] (oral NO donor, through the GLP-1r) is recorded as “can induce gastric emptying inhibition”. For the same molecule, the “GLP-1-induced insulin secretion (GLP-1 sensitivity)” value in assay [4] (HFD diabetic mice, chronic NO-donor treatment (1 week)) is on record as “enhanced”.

Take `COC(=O)[C@@H](N)CCCNC(=N)N[N+](=O)[O-]` [L-NAME]: the “effect on GLP-1-induced food intake inhibition” value in assay [5] (setting [9]) is recorded as “but not GLP-1-induced food intake inhibition”. In addition, in assay [3] (setting [9]), the “effect on GLP-1-induced gastric emptying inhibition” value is reported as “altered”. Moreover, the “effect on GLP-1-induced insulin secretion” value in assay [4] (NCD mice, L-NAME i.p. 30 min before GLP-1 challenge) is “partially reduced”.

For the molecule Exendin 9, the “effect on GLP-1 induced NO production” value in assay [6] (ileum segments, Exendin 9 with GLP-1) is on record as “prevented GLP-1 induced NO production”. The “effect of co-treatment on L-Arginine-increased insulin secretion” value in assay [2] (NCD-fed mice, co-treatment with L-Arginine) is recorded as “prevented the effect of GLP-1”.

With “GLP-1: Active GLP-1 7-36 (BACHEM), insulinotropic hormone, GLP-1 receptor agonist”, the “GLP-1-induced NO production ex vivo from ileum segments” value in assay [6] (HFD-fed GLP-1 resistant mice) is recorded as “totally blunted”; in assay [6] (NCD versus HC-HFD-fed GLP-1 sensitive mice) it was “similar”. Moreover, the “energy intake with increasing doses of GLP-1” value in assay [5] (HFD-fed lean diabetic mice compared to NCD-fed mice) is listed as “only modestly reduced”. Moreover, in assay [5] (NOD2, CD14 and TLR4 KO mice), the food intake result is “remained unchanged”. Also, the “energy intake after GLP-1 administration” value in assay [5] (sham versus SDVx-operated mice) was “similar”. In assay [7] (enteric neurons from HFD-fed mice versus NCD), the “GLP-1-induced NO production” value is on record as “dramatically resistant”. The “NO production by enteric neurons stimulated by GLP-1” value in assay [7] (enteric neurons from germ free mice) was “could not be stimulated”. Further, the “number of cFos positive neurons in response to GLP-1” value in assay [8] (NCD mice, GLP-1 7 nmol/kg) is “increases”. Moreover, in assay [8] (germ free mice), the “number of cFos positive cells in the brain stem after GLP-1 administration” value is on record as “could not be increased”. Also, the gastric emptying result in assay [3] (NOD2, CD14 and TLR4 KO mice) is on record as “impaired”. The “GLP-1 effect on gastric emptying” value in assay [3] (SDVx-operated NCD-fed mice) was “induces GLP-1 resistance to gastric emptying”. Besides, in assay [3] (both fat-enriched diet-fed mice (HC-HFD, HFD)), the “plasma concentrations of acetaminophen after GLP-1 administration (gastric emptying)” value is reported as “remained elevated”. Moreover, the “EC50 of GLP-1-induced insulin secretion (fold change dose-response)” value in assay [4] (HC-HFD mice compared to NCD mice) is on record as “doubled”; in assay [4] (HFD-fed lean diabetic mice compared to NCD mice), “dramatically increased”. Moreover, in assay [4] (NCD and HC-HFD-fed mice, GLP-1 i.p., plasma insulin 15 min after i.v. glucose), the “dose of GLP-1 reaching the maximal insulin secretion” value is 7 nmol/kg. Also, the GLP-1-induced insulin secretion entry in assay [4] (NCD-fed subdiaphragmatic vagotomy (SDVx) mice, GLP-1 7 nmol/kg) was “reduced”; in assay [4] (NOD2, CD14 and TLR4 KO mice compared to wild type controls) it was “dramatically reduced”; in assay [4] (germ free mice), “prevented”.
